For series [1], the system named is Swiss Webster mice. Put plainly: Formalin test. Particulars: orally; GL-IV-03 10 mg/kg; ketoprofen 30 mg/kg. The class given is in vivo, mouse. As to the method: Webster mice were treated orally four days in advance with indicated compounds and doses before the injection of 2% formalin in the right hind paw. Mice were evaluated during the first 5 min (phase 1) and after 20 minutes (phase 2) for 5 minutes in 5 seconds intervals Licking and biting the right hind paw during a 5 second interval was noted and combined as total time addressing the injected paw. Data is given as mean with SEM (n =8). ** indicate p<0.01 (unpaired t-test).
The antinociceptive effect of GL-IV-03 was investigated with the formalin test. Paw injections of formalin elicited a biphasic pain response separated in time (1-5 minutes and 20-60 minutes). […] Sensorimotor impairment and sedation were investigated with mice that were trained to balance on a rotating rod over a period of three minutes (rotarod). The amount of time that mice remained balanced on the rod after intraperitoneal (i.p.) and oral (p.o.) treatment with GL-IV-03 and MP-IV-010 is summarized in FIG. 7B-7C. […] The effect was similar to non-steroidal anti-inflammatory drug ketoprofen at 30 mg/kg. Sedation and inhibition of sensorimotor coordination can influence licking and biting pain behaviors, prompting rotarod studies for GL-IV-03 and MP-IV-010. […] In contrast to diazepam, a benzodiazepine with high affinity for the α1β2/3γ2 and other GABAAR subtypes, was sedating at 5 mg/kg.
Formalin test. […]

The subject of series [2] is Swiss Webster mice. As to the kind of experiment: Rotarod test. Particulars: 5 mg/kg.
The target of series [3] is T1, KOR (κ opioid receptor) (Homo sapiens, UniProt P41145).
T1 construct: expressed in transfected cells; host or cells: HEK293 (stably transfected)
T1 sequence (P41145 whole entry): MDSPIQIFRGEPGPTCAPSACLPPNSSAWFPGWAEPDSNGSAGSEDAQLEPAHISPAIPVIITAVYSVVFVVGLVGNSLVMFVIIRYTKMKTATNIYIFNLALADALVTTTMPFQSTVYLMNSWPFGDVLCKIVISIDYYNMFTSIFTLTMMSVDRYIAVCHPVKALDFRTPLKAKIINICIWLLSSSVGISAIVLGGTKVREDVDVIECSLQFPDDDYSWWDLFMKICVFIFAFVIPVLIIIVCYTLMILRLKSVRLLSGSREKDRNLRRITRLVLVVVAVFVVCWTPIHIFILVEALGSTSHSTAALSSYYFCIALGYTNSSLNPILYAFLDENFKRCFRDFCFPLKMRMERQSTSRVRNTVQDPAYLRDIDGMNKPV
As to the kind of experiment: KOR radioligand binding ([3H]-U69593, HEK293 cell homogenates). The following applies: [3H]-U69593.

The subject of series [4] is BZR (benzodiazepine site of GABAAR). As to the kind of experiment: GABAAR/BZR binding, rat brain homogenate with 3H-flunitrazepam. Particulars: rat brain homogenate, 3H-flunitrazepam. The procedure, abridged: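 Rat brain homogenate incubated with 3H-flunitrazepam near its Kd, typically 90 min at room temperature in the dark; nonspecific binding defined with 10 μM reference compound. Filtration on PEI-soaked mats, scintillation counting; compounds screened at 10,000 nM, those above 50% displacement taken to concentration–response for Ki by nonlinear regression (n=6).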

Series [5] has as its target T2, human KOR (Homo sapiens, UniProt P41145).
T2 construct: expressed in transfected cells; host or cells: HEK293T
Put plainly: BRET recruitment assay (GαoA) in HEK293T cells. The class given is cell-based. Particulars: for KOR agonism (in words): BRET recruitment assay. The procedure: HEK293 cells were transfected with GαoA-RLuc, Gβ3, Gγ8-GFP2 and human KOR and treated with increasing concentrations of GL-I-30 or full agonist salvinorin A.
The BRET recruitment assays were performed in HEK293T cells according to previously reported procedures with minor modifications. Briefly, the cells were co-transfected overnight with GαoA-RLuc, Gβ3, Gγ8-GFP2 and human KOR receptor at a 1:1:1:1 ratio. The next day, cells were seeded (˜40,000 cells/well) into poly-L-Lysine coated 96-well white clear bottom cell culture plates in DMEM containing 1% dialyzed FBS. 24 hours later, the 96-well plates bottom were covered with white backing (PerkinElmer) and the culture medium was removed. Immediately, the cells were washed with 80 μL/well of assay buffer (1× HBSS, 20 mM HEPES, 1 mg/ml BSA, pH 7.4). Then the cells were treated with 80 μL of drugs in assay buffer for 10 min at room temperature, follow by addition of 20 μL/well of RLuc substrate and incubated for another 10 min. Plates were read in a Mithras LB940 reader for the RLuc Luminescence (400 nm) and GFP2 (515 nm) emission and the ratio of GFP2/RLuc (n=24) was analyzed by non-linear regression using GraphPad Prism 8.
On the technique in general: Bioluminescence resonance energy transfer reports proximity on the nanometre scale.

Series [6] concerns the target T3, DOR (δ opioid receptor) (Homo sapiens, UniProt P41143).
T3 construct: expressed in transfected cells; host or cells: HEK293
Put plainly: DOR radioligand binding ([3H]-DADLE, HEK293 cell homogenates). The following applies: Percent inhibition at 10,000 nM; [3H]-DADLE.

The target in series [7] is T4, MOR (μ opioid receptor) (Homo sapiens, UniProt P35372).
T4 construct: expressed in transfected cells; host or cells: HEK293
T4 sequence (P35372 whole entry, species assumed): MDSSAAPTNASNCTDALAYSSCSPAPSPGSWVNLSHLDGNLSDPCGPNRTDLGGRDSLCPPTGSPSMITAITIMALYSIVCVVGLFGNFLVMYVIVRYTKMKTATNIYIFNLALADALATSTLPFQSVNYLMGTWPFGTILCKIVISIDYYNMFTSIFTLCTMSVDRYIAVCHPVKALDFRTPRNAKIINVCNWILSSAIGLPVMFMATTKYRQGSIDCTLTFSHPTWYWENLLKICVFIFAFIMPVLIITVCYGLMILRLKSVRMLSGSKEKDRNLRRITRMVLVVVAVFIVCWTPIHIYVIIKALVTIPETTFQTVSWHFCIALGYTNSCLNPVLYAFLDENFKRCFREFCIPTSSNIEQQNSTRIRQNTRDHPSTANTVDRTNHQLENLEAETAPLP
As to the kind of experiment: MOR radioligand binding ([3H]-DAMGO, HEK293 cell homogenates). Particulars: [3H]-DAMGO.

Series [8] relates to RAW macrophages. Put plainly: Cell viability (CellTiter-Glo), RAW macrophages. The format is cell-based, mouse. Particulars: CellTiter-Glo. (Cellular ATP, detected with luciferase, serves as a proxy for viable cell number.)
Series [9] has as its system Mouse microglia. As to the kind of experiment: Cell viability (CellTiter-Glo), mouse microglia. The format is cell-based. The following applies: 50 μM, CellTiter-Glo. The procedure, abridged:
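Mouse microglia (1×10^6 cells/mL) activated with 50 ng/ml LPS plus 150 U/mL IFNγ, incubated with compounds ~24 h at 37° C. Viability of remaining cells read by CellTiter-Glo luminescence after supernatant removal for Griess NO assay; […].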

The subject of series [10] is HEK293. Put plainly: Viability assay (CellTiter-Glo), HEK293. The class given is cell-based, human. The following applies: 120 μM, CellTiter-Glo.
Series [11] deals with RAW macrophages. Put plainly: NO production (Griess assay), LPS/IFNγ-activated RAW264.7 macrophages. The following applies: for Inhibition of NO production (%) RAW macrophages 10 μM: 24 hours, 1 μM GABA, LPS/IFNγ. The format is cell-based, mouse. (The Griess reaction detects nitrite, a stable product of nitric oxide.)
For series [12], the system named is HEPG2. Put plainly: Viability assay (CellTiter-Glo), HEPG2. The format is cell-based, human. Particulars: 120 μM, CellTiter-Glo.
Series [13] concerns Mouse microglia. Put plainly: NO production (Griess assay), LPS/IFNγ-activated mouse microglia. The class given is cell-based. The following applies: for Inhibition of NO production (%) Mouse microglia 10 μM: 24 hours, 1 μM GABA, LPS/IFNγ.
The test system of series [14] is GABAAR on immortalized human microglia. Put plainly: Automated patch clamp, immortalized human microglia. The format is cell-based. The following applies: 1 mM GABA, human cells.
The subject of series [15] is GABAAR on immortalized mouse microglia. Put plainly: Automated patch clamp, immortalized mouse microglia. Particulars: 1 mM GABA, mouse cells. The format is cell-based.
[16] abbreviates: Percent inhibition at 10,000 nM.

The values below come from patent US20240279232A1, “USE OF SUBSTITUTED 5-(4-METHYL-6-PHENYL-4H-BENZO[F]IMIDAZO[1,5-A][1,4] DIAZEPIN-3-YL)-1,2,4-O[…] THE TREATMENT OF INFLAMMATORY CONDITIONS” (priority 2021, published 2024).

T2 sequence (P41145 whole entry): as the sequence (P41145 whole entry) above
T2 sequence (P09471 2-354 partner limits assumed): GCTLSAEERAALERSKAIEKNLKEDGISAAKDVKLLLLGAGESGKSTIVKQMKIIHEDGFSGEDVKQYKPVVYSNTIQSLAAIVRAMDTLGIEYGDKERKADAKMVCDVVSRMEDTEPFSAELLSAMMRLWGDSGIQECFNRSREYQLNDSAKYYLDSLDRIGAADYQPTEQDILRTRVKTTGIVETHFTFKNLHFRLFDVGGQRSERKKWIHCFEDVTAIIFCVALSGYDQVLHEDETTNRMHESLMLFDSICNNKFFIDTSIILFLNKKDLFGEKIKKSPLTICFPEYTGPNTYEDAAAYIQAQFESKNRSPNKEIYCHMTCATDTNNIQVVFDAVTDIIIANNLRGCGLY
T2 sequence (P16520 whole entry partner): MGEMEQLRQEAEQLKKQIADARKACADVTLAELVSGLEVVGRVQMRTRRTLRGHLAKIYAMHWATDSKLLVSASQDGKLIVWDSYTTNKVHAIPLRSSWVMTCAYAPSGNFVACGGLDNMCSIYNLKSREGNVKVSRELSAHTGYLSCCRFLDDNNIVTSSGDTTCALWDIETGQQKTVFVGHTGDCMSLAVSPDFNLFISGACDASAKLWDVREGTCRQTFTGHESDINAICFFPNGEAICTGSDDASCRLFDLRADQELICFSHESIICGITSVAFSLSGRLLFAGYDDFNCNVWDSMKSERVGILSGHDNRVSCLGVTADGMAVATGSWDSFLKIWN
T2 sequence (Q9UK08 1-67 partner limits assumed): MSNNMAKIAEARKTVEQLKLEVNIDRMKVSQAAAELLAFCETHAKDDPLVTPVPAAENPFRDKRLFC
T3 sequence (P41143 whole entry): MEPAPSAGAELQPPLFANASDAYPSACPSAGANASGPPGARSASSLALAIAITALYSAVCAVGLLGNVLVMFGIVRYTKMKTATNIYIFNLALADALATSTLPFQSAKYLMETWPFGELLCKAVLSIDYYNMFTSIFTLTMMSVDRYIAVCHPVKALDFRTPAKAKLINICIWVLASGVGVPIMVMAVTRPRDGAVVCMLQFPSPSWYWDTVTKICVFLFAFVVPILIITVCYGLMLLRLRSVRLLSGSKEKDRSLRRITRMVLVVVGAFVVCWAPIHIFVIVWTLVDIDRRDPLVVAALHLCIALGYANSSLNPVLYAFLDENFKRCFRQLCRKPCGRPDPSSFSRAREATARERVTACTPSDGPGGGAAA

With `CC(C(=O)O)c1cccc(C(=O)c2ccccc2)c1` (stereo not shown) [ketoprofen, reference compound], the “antinociceptive effect, formalin test (phase 1 and 2)” value in [1] was “similar”.
Consider `CN1C(=O)CN=C(c2ccccc2)c2cc(Cl)ccc21` [diazepam, reference compound], for which the “sedation (rotarod)” value in series [2] is given as “sedating”.
`C#Cc1ccc2c(c1)C(c1ccccc1F)=NC(C)c1c(C(=O)OC(C)(C)C)ncn1-2` (stereo not shown) [GL-I-30]: the KOR % in series [3] (setting [16]) was 95%. Besides, the Ki (as a rule, a measure of affinity in units of concentration, obtained from inhibition or displacement) in [3] (concentration-dependent, read-out: KOR (Ki)) was determined as 27 nM; in [4] it was 177 nM; in [7] (read-out: MOR affinity Ki), 1850 nM. Besides, the BZR % in series [4] (setting [16]) was 96%. Further, the entries for the “KOR agonism (in words)” value in [5] and in series [5] (listed as GL-1-30) were “full KOR agonism” and “full KOR agonist”, respectively. For the same compound, the “efficacy in comparison to full agonist salvinorin A” value in series [5] (BRET, HEK293T cells) turned out to be 100%. Further, the EC50 (commonly the concentration giving half of the maximal effect) in series [5] (BRET, HEK293T cells, read-out: EC50, recruitment of GαoA protein to KOR) was 32.3 nM. The DOR % in series [6] was determined as 7%. The MOR % in series [7] (setting [16]) was 54%.
Take `CC(C)c1noc(-c2ncn3c2[C@@H](C)N=C(c2ccccc2F)c2cc(C4CC4)ccc2-3)n1` [GL-IV-04, (R)-5-(8-Cyclopropyl-6-(2-fluorophenyl)-4-methyl-4H-benzo[f]imidazo[1,5-a][1,4]diazepin-3-yl)-3-isoproyl-1,2,4-oxadiazole]: the “Cell viability (%) RAW macrophages 50 μM” value in [8] came out at 100 ± 7%. Moreover, the “Cell viability (%) Mouse microglia 50 μM” value in series [9] is 86 ± 6%. Moreover, the “Cell viability (%) HEK293 120 μM” value in series [10] was determined as 71 ± 6%. For the same compound, the inhibition (as a rule, the relative decrease from the control value, in per cent) at 10 µM is 11 ± 2% in series [11] (Mus musculus, Macrophage, 24 h) and 62 ± 8% in [13] (Mus musculus, Microglia, 24 h). Further, the “Cell viability (%) HEPG2 120 μM” value in [12] came to 100 ± 6%.
Take `O=C(O)c1ncn2c1CN=C(c1ccccc1)c1cc(Br)ccc1-2` [GL-I-50]: the “Cell viability (%) RAW macrophages 50 μM” value in series [8] was 100 ± 9%. The “Cell viability (%) Mouse microglia 50 μM” value in [9] was determined as 88 ± 9%. Besides, the “Cell viability (%) HEK293 120 μM” value in series [10] came out at 97 ± 12%. The “Inhibition of NO production (%) RAW macrophages 10 μM” value in series [11] was 0 ± 1%. Also, the “Cell viability (%) HEPG2 120 μM” value in series [12] was 100 ± 2%. For the same compound, the “Inhibition of NO production (%) Mouse microglia 10 μM” value in series [13] came to 33 ± 6%.
For `CCc1noc(-c2ncn3c2CN=C(c2ccccn2)c2cc(Br)ccc2-3)n1` [GL-III-99], the “Cell viability (%) RAW macrophages 50 μM” value in [8] came out at 100 ± 9%. Further, the “Cell viability (%) Mouse microglia 50 μM” value in series [9] turned out to be 95 ± 9%. For the same compound, in series [10], the “Cell viability (%) HEK293 120 μM” value stood at 87 ± 11%. Besides, in series [11], the “Inhibition of NO production (%) RAW macrophages 10 μM” value is listed as 19 ± 3%. Besides, the “Cell viability (%) HEPG2 120 μM” value in [12] worked out at 93 ± 7%. Also, the “Inhibition of NO production (%) Mouse microglia 10 μM” value in series [13] was 49 ± 5%.
Turning to `NCCCC(=O)O` [GABA], the maximum current response in series [14] is reported as 1245 pA; in [15] it was 1514 pA. The “NO production of activated microglia (in words)” value in series [13] (dexamethasone 100 nM, GABA 1 μM, MP-IV-010 50 μM, GL-II-33 in the library screen) is on record as “no effect”.
